This note sets out measurements from ChEMBL document CHEMBL4257529, “Antifungal amphiphilic kanamycins: new life for an old drug” (Medchemcomm, 2018).

≈ marks a conversion by molar mass, not a printed value.

Holding throughout (type): functional
The subject of one assay is Cryptococcus neoformans. Put plainly: Antifungal activity against Cryptococcus neoformans 90-26.
For the next assay, the system named is Candida tropicalis. Description: Antifungal activity against Candida tropicalis 95-41.
Assay [1] has as its system Candida albicans. Description: Antifungal activity against resistant Candida albicans ATCC 64124.
Assay [2] deals with Candida albicans. Description: Antifungal activity against sensitive Candida albicans MYA-2876.
In the next assay the test system is Candida parapsilosis. Put plainly: Antifungal activity against resistant Candida parapsilosis. Conditions: Lodderomyces parapsilosis.
In assay [3] the test system is Fusarium graminearum. Put plainly: Antifungal activity against Fusarium graminearum B-4-5A.
The test system of assay [4] is Fusarium graminearum. Put plainly: Synergistic antifungal activity against Fusarium graminearum B4-5A strain E assessed as fluconazole MIC after 48 hrs by microdilution assay. Background: Broth dilution looks for growth in wells or tubes with falling amounts of substance.
The test system of assay [5] is Fusarium graminearum. Description: Synergistic antifungal activity against Fusarium graminearum B4-5A strain C in presence of fluconazole after 48 hrs by microdilution assay.
Assay [6] relates to Fusarium graminearum. Put plainly: Synergistic antifungal activity against Fusarium graminearum B4-5A strain D in presence of fluconazole after 48 hrs by checkerboard method.
Assay [7] concerns Fusarium graminearum. Put plainly: Synergistic antifungal activity against Fusarium graminearum infected in wheat plant assessed as fusarium head blight incidence at 180 mg/L in presence of 0.438 L/ha prosaro 421 SC (reference value: 70%).
Assay [8] relates to Fusarium graminearum. Description: Synergistic antifungal activity against Fusarium graminearum infected in wheat plant assessed as fusarium head blight severity at 180 mg/L in presence of 0.512 L/ha caramba (reference value: 75%).
The subject of assay [9] is Fusarium graminearum. Put plainly: Antifungal activity against Fusarium graminearum infected in wheat plant assessed as fusarium head blight index at 360 mg/L (reference value: 53%).
Assay [10] deals with Fusarium graminearum. Put plainly: Synergistic antifungal activity against Fusarium graminearum infected in wheat plant assessed as fusarium head blight index at 180 mg/L in presence of 0.512 L/ha caramba (reference value: 53%).
In assay [11] the test system is Fusarium graminearum. Put plainly: Synergistic antifungal activity against Fusarium graminearum infected in wheat plant assessed as fusarium head blight index at 360 mg/L in presence of 0.512 L/ha caramba (reference value: 53%).
The test system of assay [12] is Fusarium graminearum. Put plainly: Synergistic antifungal activity against Fusarium graminearum infected in wheat plant assessed as contamination of wheat heads and kernels with deoxynivalenol at 360 mg/L in presence of 4 ml/L pyraclostrobin (reference value: 1.2 ppm).

For the molecule `CCCCCCCCS(=O)(=O)OC[C@H]1O[C@H](O[C@@H]2[C@@H](O)[C@H](O[C@H]3O[C@H](CN)[C@@H](O)[C@H](O)[C@H]3O)[C@@H](N)C[C@H]2N)[C@H](O)[C@@H](N)[C@@H]1O`, the MIC against Cryptococcus neoformans was 3.9 to 7.8 µg/mL (≈ 5.9 to 11.8 µM); with Candida tropicalis, 15.6 µg/mL (≈ 23.6 µM); against Candida albicans [1], 31.3 µg/mL (≈ 47.4 µM); in the assay with Candida albicans [2] it was 15.6 µg/mL (≈ 23.6 µM); in the assay with Candida parapsilosis, 15.6 to 31.3 µg/mL (≈ 23.6 to 47.4 µM); with Fusarium graminearum [3], 7.8 µg/mL (≈ 11.8 µM). The MIC in the assay with Fusarium graminearum [4] came to 12.5 µg/mL; in the assay with Fusarium graminearum [5] it was 4 µg/mL. For the same molecule, in the assay with Fusarium graminearum [6], the “fractional inhibitory concentration index (FICI)” value came to 0.5. The Activity worked out at 11% in the assay with Fusarium graminearum [7], 50% with Fusarium graminearum [8] and 1.6 ppm with Fusarium graminearum [12]. Further, the Activity_index in the assay with Fusarium graminearum [9] is listed as 8%; with Fusarium graminearum [10], 7%; in the assay on Fusarium graminearum [11] it was 8%.

One may read the MIC as the lowest concentration that inhibits growth of the organism.
